Assay results taken from PubChem BioAssay AID328 (DTP/NCI, 2004).
“And” between values parts separate entries of the source, which are not always exact repeats. Identical values can stand only once. Inconclusive results and toxic doses are left out. The calls were made as follows: active = survival T/C of 150% or more; inactive = T/C below 125% in these data.

Tested on: BDF1 mice, P388 leukemia ip, median survival T/C
Test: NCI In Vivo Anticancer Drug Screen. Data for tumor model P388 Leukemia (intraperitoneal) in B6D2F1 (BDF1) mice
Conditions: endpoint: median survival time, higher = longer survival
In short: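 In tumour-bearing mice, survival after compound treatment is set against the vehicle group and given as a quotient.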

[1] = dose: 100.0 mg/kg/injection, schedule: Q04DX003 (ip), vehicle: saline with Tween-80
[2] = dose: 200.0 mg/kg/injection, schedule: Q04DX003 (ip), vehicle: saline with Tween-80
[3] = dose: 400.0 mg/kg/injection, schedule: Q04DX003 (ip), vehicle: saline with Tween-80
[4] = dose: 6.25 mg/kg/injection, schedule: Q01DX009 (ip), vehicle: saline with Tween-80
[5] = dose: 12.5 mg/kg/injection, schedule: Q01DX009 (ip), vehicle: saline with Tween-80
[6] = dose: 25.0 mg/kg/injection, schedule: Q01DX009 (ip), vehicle: saline with Tween-80
[7] = dose: 50.0 mg/kg/injection, schedule: Q04DX003 (ip), vehicle: saline with Tween-80
[8] = dose: 100.0 mg/kg/injection, schedule: Q04DX003 (ip), vehicle: Klucel (hydroxypropylcellulose) (HPC)
[9] = dose: 200.0 mg/kg/injection, schedule: Q04DX003 (ip), vehicle: Klucel (hydroxypropylcellulose) (HPC)
[10] = dose: 400.0 mg/kg/injection, schedule: Q04DX003 (ip), vehicle: Klucel (hydroxypropylcellulose) (HPC)

Measured: T/C

CCCCc1c2c(nn1C(=O)C=C(C)C)C(=O)C=C(Nc1ccccc1)C2=O
inactive: [1] 99 % of control | [2] 95 % of control | [3] 103 % of control

O=C(O)CN=Cc1ccccc1O.O=C(O)CN=Cc1ccccc1O.[Fe]
inactive: [4] 100 % of control | dose: 6.25 mg/kg/injection, schedule: Q01DX009 (ip), vehicle: saline 106 % of control | dose: 6.25 mg/kg/injection, schedule: Q04DX003 (ip), vehicle: saline 100 % of control | [5] 100 % of control | dose: 12.5 mg/kg/injection, schedule: Q01DX009 (ip), vehicle: saline 115 % of control | dose: 12.5 mg/kg/injection, schedule: Q04DX003 (ip), vehicle: saline 100 % of control | [6] 100 % of control and 110 % of control | dose: 25.0 mg/kg/injection, schedule: Q01DX009 (ip), vehicle: saline 90 % of control | dose: 25.0 mg/kg/injection, schedule: Q04DX003 (ip), vehicle: saline with Tween-80 100 % of control | dose: 25.0 mg/kg/injection, schedule: Q04DX003 (ip), vehicle: saline 95 % of control | dose: 50.0 mg/kg/injection, schedule: Q01DX009 (ip), vehicle: saline with Tween-80 100 % of control | dose: 50.0 mg/kg/injection, schedule: Q01DX009 (ip), vehicle: saline 86 % of control | [7] 86 % of control

COc1cc2c3cc1Oc1c(O)c(OC)cc4c1C(Cc1cc5c(c(c1)Oc1ccc(cc1)CC3N(C)CC2)OCO5)N(C)CC4 (stereo unspecified)
inactive: dose: 1.25 mg/kg/injection, schedule: Q01DX010 (ip), vehicle: saline 90 % of control | dose: 2.5 mg/kg/injection, schedule: Q01DX010 (ip), vehicle: saline 95 % of control | dose: 5.0 mg/kg/injection, schedule: Q01DX010 (ip), vehicle: saline 90 % of control | dose: 10.0 mg/kg/injection, schedule: Q01DX010 (ip), vehicle: saline 86 % of control

COC1=C(c2ccccc2)C(=O)CCc2ccccc21
inactive: [8] 100 % of control | [9] 100 % of control | [10] 100 % of control

COC(=O)CCCCCCCCC[CH2][Hg][Cl]
inactive: dose: 6.25 mg/kg/injection, schedule: Q04DX003 (ip), vehicle: saline sonified 100 % of control | dose: 12.5 mg/kg/injection, schedule: Q04DX003 (ip), vehicle: saline sonified 100 % of control | dose: 25.0 mg/kg/injection, schedule: Q04DX003 (ip), vehicle: saline sonified 122 % of control

COC(C)(OC)C(N)=O
inactive: [1] 100 % of control | [2] 100 % of control | [3] 104 % of control

O=C1/C(=C/c2cccc([N+](=O)[O-])c2)CCc2ccccc21
inactive: [8] 100 % of control | [9] 100 % of control | dose: 400.0 mg/kg/injection, schedule: Q01DX009 (ip), vehicle: Klucel (hydroxypropylcellulose) (HPC) 104 % of control | [10] 95 % of control

C=CCc1c(C)cc(C)c(C)c1O
inactive: dose: 100.0 mg/kg/injection, schedule: Q04DX003 (sc), vehicle: olive oil, sesame oil, peanut oil 96 % of control | dose: 200.0 mg/kg/injection, schedule: Q04DX003 (sc), vehicle: olive oil, sesame oil, peanut oil 92 % of control | dose: 400.0 mg/kg/injection, schedule: Q04DX003 (sc), vehicle: olive oil, sesame oil, peanut oil 92 % of control

CCCCCC(CN(C)C)C(=O)/C=C\c1ccc(Cl)cc1Cl (stereo unspecified)
inactive: dose: 8.0 mg/kg/injection, schedule: Q01DX009 (ip), vehicle: saline 122 % of control | dose: 12.0 mg/kg/injection, schedule: Q01DX009 (ip), vehicle: saline 122 % of control | dose: 18.0 mg/kg/injection, schedule: Q01DX009 (ip), vehicle: saline 122 % of control

O=C1c2cscc2C(=O)c2c(Cl)sc(Cl)c21
inactive: [4] 101 % of control | [5] 108 % of control | [6] 101 % of control

CCOC(=O)C(=O)NNc1cccc(Cl)n1
inactive: dose: 100.0 mg/kg/injection, schedule: Q01DX001 (ip), vehicle: saline with Tween-80 94 % of control | dose: 200.0 mg/kg/injection, schedule: Q01DX001 (ip), vehicle: saline with Tween-80 86 % of control | dose: 400.0 mg/kg/injection, schedule: Q01DX001 (ip), vehicle: saline with Tween-80 112 % of control

CCn1c(C)nc2cc(C(N)=O)ccc21
inactive: [7] 95 % of control | [1] 90 % of control | [2] 113 % of control

O=C1CC(=O)N(c2ccccc2)C(=O)N1
inactive: dose: 100.0 mg/kg/injection, schedule: Q01DX009 (ip), vehicle: saline with Tween-80 94 % of control | dose: 200.0 mg/kg/injection, schedule: Q01DX009 (ip), vehicle: saline with Tween-80 88 % of control | dose: 400.0 mg/kg/injection, schedule: Q01DX009 (ip), vehicle: saline with Tween-80 106 % of control
